Patent US20080027027A1, “Lactosucrose High Content Saccharide, Its Preparation and Uses” (priority 2004, published 2008)
Like-named read-outs stand apart in the source and are kept apart here.

Legend:
[1] = Hygroscopicity of solid lactosucrose products under high temperature and humidity; assay type: physicochemical
Excerpt: While, it has been known that a powdery saccharide, comprising lactosucrose with a lowered hygroscopicity and relatively high stability, can be obtained by elevating the purity of lactosucrose (see Japanese Patent Kokai No. 281,795/92).
To solve the above objects, the present inventors studied on a process for producing lactosucrose, using β-fructofuranosidase, from the viewpoints of the origin of β-fructofuranosidase and reaction condition as well as the combination with sucrose-unassimilable yeast. It has been thought that the lactosucrose content in the reaction mixture reaches maximum about 65%, on a saccharide composition basis, even in the case of using β-fructofuranosidase and invertase-deficient yeast.
According to conventional methods, lactosucrose high content fraction, obtained by the method in Example 4, was filtrated, deionized using ion-exchange resin, decolored using activated charcoal, and concentrated under a reduced pressure to give a moisture content of about 25% (w/w). The resulting concentrate was placed in a crystallizer, admixed with 1% (w/w) of seed crystal and gradually cooled to about 30° C. in 24 hours. The resulting massecuite was centrifuged and crystalline lactosucrose pentahydrate was obtained in a yield of about 40%. […]

[2] = crystal obtained from 90% (v/v) ethanol solution, Avigad 1957; cited from earlier work

With `OC[C@H]1O[C@@H](O[C@H]2[C@H](O)[C@@H](O)[C@@H](O[C@]3(CO)O[C@H](CO)[C@@H](O)[C@@H]3O)O[C@@H]2CO)[C@H](O)[C@@H](O)[C@H]1O` [crystalline lactosucrose, β-D-galactosyl-(1,4)-α-D-glucosyl-(1,2)-β-D-fructoside] the hygroscopicity ([1]; 27° C. and a relative humidity of 75%) was “low hygroscopicity” and the hygroscopicity ([1]; condition of high-temperature and humidity in summer) was “no substantial hygroscopicity”.

For `O.O.O.O.O.OCC1OC(OC2C(CO)OC(OC3(CO)OC(CO)C(O)C3O)C(O)C2O)C(O)C(O)C1O` (stereo not drawn) [crystalline lactosucrose pentahydrate], the hygroscopicity [2] is listed as “strong hygroscopicity”.
